Reference: patent publication US4855324A, “Furyl, phenylene, and thienyl leukotriene B4 analogues” (G. D. Searle & Co., priority 1988, dated 1989)

Columns and labels:
[1] = test system: Human Neutrophil; experiment: Human Neutrophil Degranulation Assay (LTB4 induced, myeloperoxidase release); format: cell-based; details: LTB4 5×10^-8 M, cytochalasin B, 37°C, read-out: Inhibition of LTB4 Induced Neutrophil Degranulation IC50
Excerpt: For use in both the "LTB4 receptor Binding Assay" and the "human Neutrophil Degranulation Assay", neutrophils were purified from venous blood of normal human donors using standard techniques of dextran sedimentaion, centrifugation on Histopaque^2 (density solution) and hypotonic lysis of erythrocytes (Boyum, A., Isolation of Leukocytes From Human Blood: Further Observations. Scand. J. Lab. Clin. Inves. 21 (Suppl. 97): 31, 1968). The purity of isolated neutrophilis was ≥95%.
LTB4 induced neutrophil degranulation was determined by measuring the release of myeloperoxidase activity into the incubation medium. Neturophils (3 ×10^6) in 1ml HBSS solution were preincubated with cytochalasin B(5μg) at 37°C. for 5 minutes, followed by preincubation with test compounds for 7 minutes. Neutrophils were then incubated for 2 to 20 minutes with either LTB4 (5 ×10^- 8M) or the chemotatic peptide f-met-leu-phe (5 ×10^- 6M) to induce degranulation. Following incubation, samples were centrifuged and myeloperoxidase was extracted from the cell pellets by sonication in phoshpate buffer containing 0.4% Triton X-100. Triton X-100 was also added to the supernatents to a concentration of 0.4%. The supernatants and the pellet extracts were then assayed spectrophotometrically for myeloperoxide activity by determining the rate of decomposition of H2 O2 withh o-dianisidine as hydrogen donor as described by Renlund, D. G., MacFarlane, J. L., Christensen, R. D., Lynch, R. E., and Rothstein, G., A Quantitative And Sensitive Method For Measurement Of Myeloperoxidase, Clinical Research 28:75A, 1980). Myeloperoxidase activity released into the supernatant was expressed as the percent of the average total activity (pellet plus supernatant).
The inhibition of LTB4 induced neutrophil degranulation was determined for representative compounds of this invention and their corresponding IC50 values were calculated (Table 1). The concentration of a compound which inhibited LTB4 induced neutrophil degranulation by 50% was determined to be its IC50 value.

[2] = biological target: T1, LTB4 receptors (Homo sapiens, UniProt Q15722); experiment: LTB4 Receptor Binding Assay (inhibition of specific (3H) LTB4 binding to neutrophils); details: 0.6nM (3H) LTB4, human neutrophils, 0°C, 45 minutes, pH 7.4
T1 construct: neutrophils were purified from venous blood of normal human donors; endogenous in cells; host or cells: human neutrophils purified from venous blood of normal donors
Description: Neutrophils (4-6×10^6) in 1ml of Hanks' balanced salt solution containing 10mM Hepes Buffer (HBSS), pH 7.4 and 30 μM nordihydroguaiaretic acid were incubated with 0.6nM (^3 H) LTB4 in the presence or absence of test compounds. The incubation was carried out at 0°C. for 45 minutes and terminated by adding 5ml of ice-cold HBSS followed by rapid filtration of incubation mixture under vacuum through GF/C glass fiber filters. The filters were further washed with 10ml HBSS and their radioactivity determined. Specific binding was defined as the difference between total binding and nonspecific binding which was not displaced by 10^- 7M unlabeled LTB4.

[3] = Boyden Chamber Inhibition (as Antagonist); format: cell-based; details: at 10^-5 (concentration unit not given)

T1 sequence (Q15722 whole entry): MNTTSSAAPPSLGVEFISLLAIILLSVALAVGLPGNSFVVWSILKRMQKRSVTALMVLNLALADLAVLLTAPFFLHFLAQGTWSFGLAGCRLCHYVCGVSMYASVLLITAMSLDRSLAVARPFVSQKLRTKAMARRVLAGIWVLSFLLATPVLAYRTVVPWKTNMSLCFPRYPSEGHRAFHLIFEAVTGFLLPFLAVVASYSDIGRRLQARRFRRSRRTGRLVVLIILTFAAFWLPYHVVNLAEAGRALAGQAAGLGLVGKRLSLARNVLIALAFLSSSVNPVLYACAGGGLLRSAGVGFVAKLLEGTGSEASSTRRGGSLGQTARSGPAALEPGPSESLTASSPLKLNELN

| IC50 [1] [µM] | IC50 [2] [µM] | Structure (SMILES) | Boyden Chamber Inhibition at 10^-5 (as Antagonist) [3] [%] |
| --- | --- | --- | --- |
| 1.8 | 4.1 | CCCCCCCCC(O)/C=C/C=C/c1ccc(C(=O)CCCC(=O)O)s1 (stereo not drawn) | 30 |
| 5.2 | 6.3 | CCCCCCCCC(O)/C=C/C=C/c1ccc(C(O)CCCC(=O)O)s1 (stereo not drawn) | 33 |
| 1 | 3 | CCCCCCCCC(O)/C=C/C=C/c1ccccc1C(=O)CCCC(=O)O (stereo not drawn) | 8 |
